How the values were obtained:
[1] = molecular target: HCV RNA-dependent RNA polymerase (Hepatitis C virus genotype 1a, UniProt P27958); conditions: Ivanov et al., Russian J. Bioorg. Chem. 2010; cited from earlier work
[2] = Cytotoxicity in the replicon cells (staining with STT); type: cell-based; conditions: human, Huh-7 luc/neo ET cells, read-out: HCV Replicon CC50
Method: (§1) Huh-7 luc/neo ET cells bearing a discistronic HCV genotype 1b luciferase reporter replicon were plated at 7.5×10^3 cells/mi in duplicate 96-well plates for the parallel determination of antiviral efficacy (EC50) and cytotoxicity (TC50). The plates were cultured for 24 hours prior to the addition of compounds. Six serial one half log dilutions of the test articles (high test concentration of 100.0 μM. or high test concentration of 1.0 μM) and human interferon-alpha2b (high test 10.0 U/ml) were prepared in cell culture medium and added to the cultured cells in triplicate wells for each dilution. Six wells in the test plates received medium alone as an untreated control. Following 72 hours of culture in the presence of compound, one of the plates was used for the determination of cytotoxicity by staining with STT and the other for antiviral efficacy by determination of luciferase reporter activity. Cytotoxicity and efficacy data were collected and imported into a customized Excel workbook for determination of the TC50 and EC50 values.

[3] = system: HCV genotype 1b luciferase reporter replicon; assay: HCV replicon assay, antiviral efficacy by luciferase reporter activity; type: cell-based
Method: as §1

[4] = system: Huh-7 luc/neo ET cells; assay: Cytotoxicity in the replicon cells (staining with STT); type: cell-based; conditions: 72 hours, read-out: HCV Replicon CC50
Method: as §1

[5] = molecular target: T1, adenosine deaminase (Homo sapiens, UniProt P00813); conditions: over a long period (120 minutes); WO 2010/091386; cited from earlier work
T1 sequence (P00813 1-363): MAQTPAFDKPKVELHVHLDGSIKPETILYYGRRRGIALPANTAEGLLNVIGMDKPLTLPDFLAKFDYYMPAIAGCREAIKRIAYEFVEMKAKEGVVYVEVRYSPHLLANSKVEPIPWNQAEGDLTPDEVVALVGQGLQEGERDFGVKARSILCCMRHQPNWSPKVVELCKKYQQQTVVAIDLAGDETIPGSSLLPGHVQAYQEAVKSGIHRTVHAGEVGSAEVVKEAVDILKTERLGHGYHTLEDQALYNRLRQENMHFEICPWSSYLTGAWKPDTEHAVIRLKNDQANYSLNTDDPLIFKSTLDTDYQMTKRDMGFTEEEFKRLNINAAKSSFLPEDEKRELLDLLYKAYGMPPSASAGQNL

Sequence of HCV RNA-dependent RNA polymerase (P27958 2421-3011): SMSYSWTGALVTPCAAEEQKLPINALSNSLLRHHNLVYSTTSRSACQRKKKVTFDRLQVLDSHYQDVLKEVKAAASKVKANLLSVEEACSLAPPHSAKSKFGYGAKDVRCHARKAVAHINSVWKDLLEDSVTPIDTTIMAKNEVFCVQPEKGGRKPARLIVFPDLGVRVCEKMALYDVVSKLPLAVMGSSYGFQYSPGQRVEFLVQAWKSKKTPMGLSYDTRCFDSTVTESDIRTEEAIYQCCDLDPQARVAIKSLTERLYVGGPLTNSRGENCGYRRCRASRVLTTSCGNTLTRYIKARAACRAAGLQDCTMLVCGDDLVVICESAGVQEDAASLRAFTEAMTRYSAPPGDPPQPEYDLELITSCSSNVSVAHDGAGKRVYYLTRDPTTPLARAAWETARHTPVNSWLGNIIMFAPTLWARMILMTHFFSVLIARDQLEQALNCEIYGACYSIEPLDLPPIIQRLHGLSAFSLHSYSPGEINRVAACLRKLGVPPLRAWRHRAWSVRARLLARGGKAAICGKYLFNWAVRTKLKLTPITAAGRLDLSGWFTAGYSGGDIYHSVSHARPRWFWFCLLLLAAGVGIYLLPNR

Compound | CC50 at 72 h [2] | Fold increase in activity compared to parent nucleoside [3] | further results
O=c1ccn([C@@H]2O[C@](F)(COP(=O)(O)OP(=O)(O)OP(=O)(O)O)[C@@H](O)[C@H]2O)c(=O)[nH]1 [4′fluorouridine 5′-O-triphosphate] |  |  | inhibition of HCV RNA-dependent RNA polymerase [1]: effective inhibitor
CN(C)c1nc(N)nc2c1ncn2[C@@H]1O[C@](F)(CO)C(O)[C@@]1(C)F (stereo partly drawn) [Cmpd 1] | > 100 µM |  | 
CC(C)OC(=O)[C@H](C)NP(=O)(OC[C@@]1(F)O[C@@H](n2cnc3c(N(C)C)nc(N)nc32)[C@](C)(F)C1O)Oc1ccccc1 (stereo partly drawn) [Cmpd 2] | > 10 µM | 2,941 | 
CN(c1nc(N)nc2c1ncn2[C@@H]1O[C@](F)(CO)C(O)[C@@]1(C)F)C1CC1 (stereo partly drawn) [Cmpd 3] | > 100 µM |  | 
CC(C)OC(=O)[C@H](C)NP(=O)(OC[C@@]1(F)O[C@@H](n2cnc3c(N(C)C4CC4)nc(N)nc32)[C@](C)(F)C1O)Oc1ccccc1 (stereo partly drawn) [Cmpd 4] |  | 667 | CC50 [4]: > 10 µM
CNc1nc(N)nc2c1ncn2[C@@H]1O[C@](F)(CO)C(O)[C@@]1(C)F (stereo partly drawn) [Cmpd 5] | > 100 µM |  | 
CNc1nc(N)nc2c1ncn2[C@@H]1O[C@](F)(COP(=O)(N[C@@H](C)C(=O)OC(C)C)Oc2ccccc2)C(O)[C@@]1(C)F (stereo partly drawn) [Cmpd 6] | > 10 µM | 10,000 | 
CC(C)OC(=O)[C@H](C)N[P@](=O)(OC[C@@]1(F)O[C@@H](n2cnc3c(N(C)C)nc(F)nc32)[C@](C)(F)[C@@H]1O)Oc1ccccc1 [Cmpd 8] | 35.3 µM | 2521 | 
CNc1nc(F)nc2c1ncn2[C@@H]1O[C@](F)(CO[P@@](=O)(N[C@@H](C)C(=O)OC(C)C)Oc2ccccc2)[C@@H](O)[C@@]1(C)F [Cmpd 10] | 54 µM | 4.7 | 
C[C@@]1(F)C(O)[C@@](F)(CO)O[C@H]1n1cnc2c(N3CCCC3)nc(N)nc21 (stereo partly drawn) [Cmpd 11] | > 100 µM |  | 
CC(C)OC(=O)[C@H](C)NP(=O)(OC[C@@]1(F)O[C@@H](n2cnc3c(N4CCCC4)nc(N)nc32)[C@](C)(F)C1O)Oc1ccccc1 (stereo partly drawn) [Cmpd 12] | > 10 µM | >31.3 | 
CCN(C)c1nc(N)nc2c1ncn2[C@@H]1O[C@](F)(CO)C(O)[C@@]1(C)F (stereo partly drawn) [Cmpd 13] | > 100 µM |  | 
CCN(C)c1nc(N)nc2c1ncn2[C@@H]1O[C@](F)(COP(=O)(N[C@@H](C)C(=O)OC(C)C)Oc2ccccc2)C(O)[C@@]1(C)F (stereo partly drawn) [Cmpd 14] | > 10 µM | 434 | 
CC(C)OC(=O)[C@H](C)NP(=O)(OC[C@@]1(F)O[C@@H](n2cnc3c(N(C)C4CC4)nc(N)nc32)[C@](C)(F)C1O)Oc1ccccc1 (stereo partly drawn) [Cmpd 15] |  | 3332 | CC50 [4]: > 50 µM
CC(C)OC(=O)[C@H](C)N[P@](=O)(OC[C@@]1(F)O[C@@H](n2cnc3c(N(C)C)nc(N)nc32)[C@](C)(F)C1O)Oc1ccccc1 (stereo partly drawn) [Cmpd 16] | > 50 µM | 40 | 
CNc1nc(F)nc2c1ncn2[C@@H]1O[C@](F)(CO[P@@](=O)(N[C@@H](C)C(=O)OC(C)C)Oc2ccccc2)C(O)[C@@]1(C)F (stereo partly drawn) [Cmpd 17] | > 50 µM | 4.3 | 
CN(C)c1nc(N)nc2[nH]cnc12 [N^6-dimethyl-2,6-diaminopurine] |  |  | deamination by adenosine deaminase [5]: not substantially deaminated
